These results are taken from patent publication US7592503B2, “Mammalian telophase oocyte enucleation” (Trustees of Tufts College, priority 1998, dated 2009).

In test [1] the test system is mouse metaphase II oocytes. Description: Treatment-induced nuclear chromatin enucleation of activated oocytes (H33342 staining, fluorescence microscopy). The conditions noted are these: for rate of treatment-induced chromatin enucleation: ethanol- or ionomycin-activated B6D2 oocytes, Taxol 5 μg/ml, Cycloheximide 10 μg/ml, Demecolcine 0.4 μg/ml in PBS+10% FBS, 0.5-1.5 h post activation; for rate of treatment-induced chromatin enucleation (range in parentheses): same treatments, range printed in parentheses. The class given is cell-based. The text has this: Advances in somatic cell nuclear transfer (NT) methodology have seen the procession of cloned sheep, cows, mice and goats. Despite the clear potential use of this technology for genetic manipulations, the success rates remain woefully low. The limitations associated with nuclear transfer include the selection and preparation of competent donor cytoplasts. The cytoplasm plays a vital role in genome reprogramming and reactivation and therefore manipulations that compromise oocyte developmental competence are detrimental to the success of nuclear transfer. The present study was directed towards determining alternative methods to more efficiently prepare competent cytoplasts for nuclear transfer procedures. In experiment 1, in vivo-produced mouse metaphase II oocytes (B6D2, aguti, recovered at 16-20 h post hCG) were activated by exposure to either 7% ethanol or 2 μm ionomycin in PBS+10% FBS (5 min.). At the onset of initial second polar body formation (10-15 min. post activation) and extrusion (anaphase/telophase stage), oocytes were randomly allocated to control (cultured 0.5-1.5 h) or incubated with Taxol® (5 μg/ml), Cycloheximide (10 μg/ml) or in Demecolcine (0.4 μg/ml) in PBS+10% FBS until the second polar body was extruded (0.5-1.5 h post activation) to induce nuclear chromatin enucleation. Oocytes were stained (H33342, 5 μg/ml) to confirm the extent of nuclear chromatin enucleation using fluorescence microscopy. […] In experiment 2, Demecolcine-induced enucleated cytoplasts were used for nuclear transfer recipients. Donor nuclei were prepared from cumulus cells (Black Swiss) by partial lysis (1% sodium citrate) followed by aspiration using the injection pipette (7 um). Donor nuclei were injected into cytoplasts pretreated with Cytochalasin-B (5 μg/ml, 15 min.). Reconstructed NT embryos were subsequently co-cultured (72-96 h) with oviductal cells in drops of M-199+10% FBS. The cleavage rate was 70% (85/121) and the rate of blastocyst formation was 42% (51/121). Pregnancies were established in 2/3 recipients (CD1, white) following uterine embryo transfer (10 embryos/recipient). A total of 14 black female pups were born (47%, 14/30), seven of which were stillborn from 1 recipient and the other seven were born live (23%, 7/30) but 3 were cannibalized within 24 h. The 4 cloned pups were normal and healthy, and their fertility is being assessed. […] Moreover, cytoplasts derived from this enucleation procedure are competent to support genome reactivation and fetal development to term. This technically simple approach may provide a more efficient method to produce large numbers of cytoplasts for cloning procedures.

Another test has as its system mouse oocytes. As to the kind of experiment: Activation of metaphase II oocytes to Telophase II stage in vitro. The class given is cell-based. The conditions noted are these: ionomycin 4 μM, 5 min; 3 replicate experiments. On the procedure: Oocytes were collected from superovulated mice by flushing oviducts to collect metaphase II stage oocytes. Oocytes were then activated by one of two methods to reach the Telophase II state in vitro: culture-induced Ca^2+ activation or ionomycin activation (4 μM, 5 min), and enucleated. Karyoplasts were prepared from cumulus cells (natural G0 stage) and nuclear transfer was conducted followed by electrical fusion with Telophase II cytoplasts.

Consider `C[C@@H]1C[C@@H]([C@H](O)CC2CC(=O)NC(=O)C2)C(=O)[C@@H](C)C1` [Cycloheximide], for which, in test [1], the “rate of treatment-induced chromatin enucleation” value was determined as 16.3% and the “rate of treatment-induced chromatin enucleation (range in parentheses)” value (from here on “rate … (range in parentheses)”) is 0-24%.

For `CN[C@H]1CCc2cc(OC)c(OC)c(OC)c2-c2ccc(OC)c(=O)cc21` [Demecolcine], in test [1], the “rate of treatment-induced chromatin enucleation” value came to 54% and the “rate … (range in parentheses)” value is listed as 27-70%.

As to `C[C@H](CCC(=O)O)C[C@H](C)C[C@H](C)C(=O)/C=C(\O)[C@H](C)C[C@H](C)C/C=C/[C@@H](C)[C@@H](O)[C@@H](C)[C@@H](O)C[C@@H]1CC[C@@](C)([C@H]2CC[C@@](C)([C@@H](C)O)O2)O1` [Ionomycin, ionomycin], in the test on mouse oocytes, the “Activation, Number (activated/treated oocytes)” value is 46/50 and the “Activation, Percent” value is listed as 92%.

As for `CC(=O)O[C@H]1C(=O)[C@@]2(C)[C@H]([C@H](OC(=O)c3ccccc3)[C@]3(O)C[C@H](OC(=O)[C@H](O)[C@@H](NC(=O)c4ccccc4)c4ccccc4)C(C)=C1C3(C)C)[C@]1(OC(C)=O)CO[C@@H]1C[C@@H]2O` [Taxol®, paclitaxel], in test [1], the “rate of treatment-induced chromatin enucleation” value worked out at 3.6% and the “rate … (range in parentheses)” value was 0-10%.
